Measurements: patent US20100280053A1, “CyclopropylmethYl-[7-(5,7-dimethyl-benzo[1,2,5]thiodiazol-4-yl)-2,5,6-trimethyl-7H-pyrrolo[2,3-d]pyrimidin-4-yl]-4-propyl-amine as a CRF Antagonist” (NOVARTIS AG, priority 2003, published 2010)

Target: T1, human recombinant CRF1 (Homo sapiens, UniProt P34998)
T1 construct: expressed in transfected cells
T1 sequence (P34998 24-415): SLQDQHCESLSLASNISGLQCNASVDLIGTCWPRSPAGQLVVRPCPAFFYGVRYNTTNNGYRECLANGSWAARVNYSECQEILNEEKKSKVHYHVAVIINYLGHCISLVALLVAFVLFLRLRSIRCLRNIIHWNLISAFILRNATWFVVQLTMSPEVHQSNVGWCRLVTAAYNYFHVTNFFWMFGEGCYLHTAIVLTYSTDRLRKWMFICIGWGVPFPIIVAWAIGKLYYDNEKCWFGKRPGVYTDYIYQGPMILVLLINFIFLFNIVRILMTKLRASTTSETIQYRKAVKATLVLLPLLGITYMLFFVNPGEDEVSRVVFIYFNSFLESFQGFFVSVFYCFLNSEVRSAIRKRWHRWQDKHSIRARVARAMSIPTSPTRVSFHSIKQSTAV
Assay: Inhibition of CRF-stimulated cyclic AMP accumulation in CHO cells expressing human recombinant CRF1
Format: cell-based
Conditions: CRF concentration-response curves in presence of antagonist (1 nM-1 μM)
Experimental: Chinese hamster ovary (CHO) cells expressing human recombinant CRF1 (Chen et al., Proc Natl Acad Sci USA 90, 8967-8971, 1993) are propagated in Dulbecco's modified Eagle medium supplemented with 10% foetal calf serum, non-essential aminoacids, 100 U/ml penicillin, 100 mg/l streptomycin and 1 g/l geneticin (G418). For cyblic AMP determinations, cells are grown to confluence in 24-multiwell plates. Stimulation of cyclic AMP accumulation by CRF (human/rat form) is measured in intact cells, using the [^3H]adenine labelling technique, as described previously (Schoeffter et al., Neuropharmacology 36, 429-437, 1997).
Concentration-response curves for CRF are constructed in the presence of putative antagonists (1 nM-1 μM) or vehicle (dimethyl sulfoxide 1% vol). IC50 values of antagonists are calculated by fitting the percent inhibition of the effect of CRF (10 nM) by increasing concentrations of the antagonists. The fit is done using the nonlinear logistic function of the Origin software package (OriginLab Corporation, Northampton, Mass., USA).

CCCN(CC1CC1)c1nc(C)nc2c1c(C)c(C)n2-c1c(C)cc(C)c2nsnc12 [compound of formula A, Cyclopropylmethyl-[7-(5,7-dimethyl-benzo[1,2,5]thiadiazol-4-yl)-2,5,6-trimethyl-7H-pyrrolo[2,3-d]pyrimidin-4-yl]-propyl-amine]
mode of CRF1 receptor antagonism: non-competitive CRF1 receptor antagonist
